Literature values, collected in paper PMC7835950 (Frontiers in Chemistry, 2021).

What was measured:
[1] = system: other enzymes transforming organic acids or structurally related compounds; set-up: method as in Artiukhov et al., 2020; details: ref Artiukhov et al., 2020; cited from earlier work
[2] = system: recombinant OGDH complex; details: cited from earlier work
[3] = system: recombinant human OADH; set-up: method as in Nemeria et al., 2017, 2018; details: ref Nemeria et al., 2017, 2018, cited from earlier work

Row | Structure (SMILES) | interaction with other enzymes [1] | Km ([2]; OA as alternative substrate, ref Nemeria et al., 2017) [µM] | kcat OA of recombinant OGDH complex ([2]; ref Nemeria et al., 2017, 2018) [s⁻¹] | kcat OA of recombinant OADH complex [3] [s⁻¹] | Km ([3]; read-out: Km OA of recombinant human OADH) [µM]
1 | O=C(O)CCCCC(=O)P(=O)(O)O [AP, adipoyl phosphonate] | no significant interaction | – | – | – | –
2 | O=C(O)CCC(=O)P(=O)(O)O [SP, succinyl phosphonate] | no significant interaction | – | – | – | –
3 | O=C(O)CCCC(=O)C(=O)O [OA, 2-oxoadipate] | – | 520 | 2.7 | 6.0 | 15
